# Article PMC10974533, “Cationicity Enhancement on the Hydrophilic Face of Ctriporin Significantly Reduces Its Hemolytic Activity and Improves the Antimicrobial Activity against Antibiotic-Resistant ESKAPE Pathogens” (Toxins, 2024)
# Where a SMILES comes first, the peptide text is derived from it.
# Key:
# Assay type in all cases: cell-based
# A. baumannii ATCC19606 = assay: MIC, broth dilution, standard strain; conditions: broth dilution (CLSI), MHB, 5 × 10^5 CFU/mL, 37 °C, 16–20 h, OD630, repeated at least three times
# Experimental: (§1) The standard strains, including S. aureus ATCC29213 and ATCC25923, E. faecalis ATCC29212, E. coli ATCC25922 and ATCC35218, A. baumannii ATCC19606, K. pneumoniae ATCC700603, and P. aeruginosa ATCC27853, were purchased from the China Center of Type Culture Collection (CCTCC). The clinical strains of the ESKAPE pathogens were isolated from the affiliated hospitals of Hubei University of Medicine. All of them were stored at −80 °C before use. The drug sensitivities of the clinical strains were determined by the Kirby–Bauer test.
# (§2) The MICs were determined using the broth dilution method according to the guidelines of the Clinical and Laboratory Standards Institute (CLSI), as described in the previous studies. Briefly, the bacterial cells were incubated in Mueller–Hinton broth (MHB, Oxoid, Basingstoke, UK) at 37 °C and 150 rpm to the mid-growth phase and diluted to achieve a final concentration of 5 × 10^5 colony-forming units per milliliter (CFU/mL). Then, the cells were mixed with each peptide in different concentrations (1, 2, 4, 8, 16, 32, and 64 μg/mL). […] All experiments were repeated at least three times.
# E. coli ATCC25922 = assay: MIC, broth dilution, standard strain; conditions: broth dilution (CLSI), MHB, 5 × 10^5 CFU/mL, 37 °C, 16–20 h, OD630, repeated at least three times
# Experimental: as §1, §2
# E. coli ATCC35218 = assay: MIC, broth dilution, standard strain; conditions: broth dilution (CLSI), MHB, 5 × 10^5 CFU/mL, 37 °C, 16–20 h, OD630, repeated at least three times
# Experimental: as §1, §2
# E. faecium ATCC29212 = assay: MIC, broth dilution, standard strain; conditions: broth dilution (CLSI), MHB, 5 × 10^5 CFU/mL, 37 °C, 16–20 h, OD630, repeated at least three times
# Experimental: as §1, §2
# K. pneumoniae ATCC700603 = assay: MIC, broth dilution, standard strain; conditions: broth dilution (CLSI), MHB, 5 × 10^5 CFU/mL, 37 °C, 16–20 h, OD630, repeated at least three times
# Experimental: as §1, §2
# P. aeruginosa ATCC27853 = assay: MIC, broth dilution, standard strain; conditions: broth dilution (CLSI), MHB, 5 × 10^5 CFU/mL, 37 °C, 16–20 h, OD630, repeated at least three times
# Experimental: as §1, §2
# S. aureus ATCC25923 = assay: MIC, broth dilution, standard strain; conditions: broth dilution (CLSI), MHB, 5 × 10^5 CFU/mL, 37 °C, 16–20 h, OD630, repeated at least three times
# Experimental: as §1, §2
# S. aureus ATCC29213 = assay: MIC, broth dilution, standard strain; conditions: broth dilution (CLSI), MHB, 5 × 10^5 CFU/mL, 37 °C, 16–20 h, OD630, repeated at least three times
# Experimental: as §1, §2
# [1] = tested on: human red blood cells (hRBC); assay: Hemolytic activity determination; conditions: 2% (v/v) hRBC, 37 °C, 1 h; for curve of hemolysis% vs. peptide concentration (Figure 2): 0–512 μg/mL peptide, compared in words; for Hemolysis% at 256 μg/mL: 256 μg/mL peptide, OD540, 1% Triton X-100 = 100%, average ± standard error of three independent experiments
# Experimental: Figure 2 Hemolytic activities of Ctriporin and its analogs against human red blood cells (hRBC). Hemolytic activities of Ctriporin (solid circle), CM1 (open circle), CM2 (open square), CM3 (upward triangle), CM4 (downward triangle), CM5 (half solid circle), CM6 (half solid square), and CM7 (half solid triangle), were measured against 2% (v/v) human red blood cells. The peptide concentrations are 0, 2, 4, 8, 16, 32, 64, 128, 256, and 512 μg/mL. The cells treated with 1% Triton X-100 were treated as 100% hemolysis. All experiments were repeated three times, and the data shown are the average ± standard error.
# The hemolytic activities of the peptides were determined against human red blood cells (hRBCs). As described, sodium citrate-anticoagulated hRBCs were washed three times with 0.9% sodium chloride and diluted to a final concentration of 4% (v/v). Then, an equal volume of hRBC solutions was mixed with an equal volume of each peptide in a series of concentrations (0, 2, 4, 8, 16, 32, 64, 128, 256, and 512 μg/mL). After co-incubation at 37 °C for 1 h, the degree of hemolysis of the peptides was determined by detecting the release of hemoglobin from the damaged hRBCs by measuring the optical density at 540 nm (OD540). hRBCs in 0.9% sodium chloride and 1% Triton X-100 were considered 0% and 100% hemolysis, respectively. The results shown are the average ± standard error of data derived from three independent experiments. The percent hemolysis was calculated according to the following equation [53, 54]:Hemolysis (%) = 100 × (Asample − Ablank)/(Apositive − Ablank)
# A. baumannii 19295 = assay: MIC, broth dilution, clinical isolate; conditions: CRE/MDR clinical isolate; broth dilution (CLSI), MHB, 5 × 10^5 CFU/mL, 37 °C, 16–20 h, OD630
# Experimental: as §1, §2
# A. baumannii 19462 = assay: MIC, broth dilution, clinical isolate; conditions: CRE/MDR clinical isolate; broth dilution (CLSI), MHB, 5 × 10^5 CFU/mL, 37 °C, 16–20 h, OD630
# Experimental: as §1, §2
# A. baumannii 19618 = assay: MIC, broth dilution, clinical isolate; conditions: CRE/MDR clinical isolate; broth dilution (CLSI), MHB, 5 × 10^5 CFU/mL, 37 °C, 16–20 h, OD630
# Experimental: as §1, §2
# E. coli 2678 = assay: MIC, broth dilution, clinical isolate; conditions: ESBL clinical isolate; broth dilution (CLSI), MHB, 5 × 10^5 CFU/mL, 37 °C, 16–20 h, OD630
# Experimental: as §1, §2
# E. coli 2687 = assay: MIC, broth dilution, clinical isolate; conditions: ESBL clinical isolate; broth dilution (CLSI), MHB, 5 × 10^5 CFU/mL, 37 °C, 16–20 h, OD630
# Experimental: as §1, §2
# E. faecium 898 = assay: MIC, broth dilution, clinical isolate; conditions: MDR clinical isolate; broth dilution (CLSI), MHB, 5 × 10^5 CFU/mL, 37 °C, 16–20 h, OD630
# Experimental: as §1, §2
# K. pneumoniae 9126 = assay: MIC, broth dilution, clinical isolate; conditions: CRE clinical isolate; broth dilution (CLSI), MHB, 5 × 10^5 CFU/mL, 37 °C, 16–20 h, OD630
# Experimental: as §1, §2
# P. aeruginosa 9014 = assay: MIC, broth dilution, clinical isolate; conditions: CRE/MDR clinical isolate; broth dilution (CLSI), MHB, 5 × 10^5 CFU/mL, 37 °C, 16–20 h, OD630
# Experimental: as §1, §2
# S. aureus 891 = assay: MIC, broth dilution, clinical isolate; conditions: MRSA clinical isolate; broth dilution (CLSI), MHB, 5 × 10^5 CFU/mL, 37 °C, 16–20 h, OD630
# Experimental: as §1, §2
# S. aureus 9124 = assay: MIC, broth dilution, clinical isolate; conditions: MRSA clinical isolate; broth dilution (CLSI), MHB, 5 × 10^5 CFU/mL, 37 °C, 16–20 h, OD630
# Experimental: as §1, §2
# S. capitis 3255 = assay: MIC, broth dilution, clinical isolate; conditions: MRSC clinical isolate; broth dilution (CLSI), MHB, 5 × 10^5 CFU/mL, 37 °C, 16–20 h, OD630
# Experimental: as §1, §2
# S. epidermidis 6943 = assay: MIC, broth dilution, clinical isolate; conditions: MRSE clinical isolate; broth dilution (CLSI), MHB, 5 × 10^5 CFU/mL, 37 °C, 16–20 h, OD630
# Experimental: as §1, §2
# S. epidermidis 9092 = assay: MIC, broth dilution, clinical isolate; conditions: MRSE clinical isolate; broth dilution (CLSI), MHB, 5 × 10^5 CFU/mL, 37 °C, 16–20 h, OD630
# Experimental: as §1, §2
# standard ESKAPE strains = conditions: broth dilution (CLSI), MHB, 37 °C, 16–20 h; range over all standard strains
# Experimental: The ESKAPE pathogens represent the main threat to public health concerning antimicrobial resistance. Therefore, we first evaluated the antimicrobial activities of Ctriporin and its analogs against the standard ESKAPE strains. The minimum inhibitory concentration (MIC) was chosen as the index for the evaluation of each peptide’s activity. […] Note that the MICs of CM4 and CM7 are 4–32 and 8–32 μg/mL, respectively, indicating the existence of significant bacterial species deviations for the antimicrobial activity of these peptides. In addition, the replacement of specific residues, especially Pro^7, may harm the antimicrobial activities of the peptide.
# as §1, §2
# [2] = tested on: clinical isolates of CRE and multidrug-resistant (MDR) A. baumannii; conditions: broth dilution (CLSI), MHB
# Experimental: To further evaluate the antimicrobial potential of CM5 and CM6, the MICs of these two peptides, as well as the parent peptide Ctriporin, were determined against clinical antibiotic-resistant isolates of ESKAPE strains. […] Note that CRE and MDR A. baumannii are listed at the top of the pathogens threatening public health. Compared with the parent peptide Ctriporin, eight to sixteen times improvement in terms of antimicrobial activity was obtained through our peptide design strategy.
# as §2
Structure (SMILES),MICs (A. baumannii ATCC19606),MICs (E. coli ATCC25922),MICs (E. coli ATCC35218),MICs (E. faecium ATCC29212),MICs (K. pneumoniae ATCC700603),MICs (P. aeruginosa ATCC27853),MICs (S. aureus ATCC25923),MICs (S. aureus ATCC29213),curve of hemolysis% vs. peptide concentration (Figure 2) [1],Hemolysis% at 256 μg/mL [1],MICs (A. baumannii 19295),MICs (A. baumannii 19462),MICs (A. baumannii 19618),MICs (E. coli 2678),MICs (E. coli 2687),MICs (E. faecium 898),MICs (K. pneumoniae 9126),MICs (P. aeruginosa 9014),MICs (S. aureus 891),MICs (S. aureus 9124),further results
CC[C@H](C)[C@H](NC(=O)[C@H](C)NC(=O)[C@H](CCCCN)NC(=O)[C@@H]1CCCN1C(=O)[C@@H](NC(=O)[C@H](CC(C)C)NC(=O)[C@H](CCCCN)NC(=O)[C@H](Cc1c[nH]c2ccccc12)NC(=O)[C@H](CC(C)C)NC(=O)[C@@H](N)Cc1ccccc1)[C@@H](C)CC)C(=O)N[C@@H](CCCCN)C(=O)N[C@@H](CCCCN)C(=O)N[C@H](C(=O)N[C@@H](CCCCN)C(=O)N[C@@H](CO)C(=O)N[C@@H](CC(C)C)C(=O)N[C@H](C(=O)N[C@@H](CCCCN)C(=O)N[C@@H](CCCCN)C(N)=O)[C@@H](C)CC)C(C)C [CM5] (H-FLWKLIPKAIKKVKSLIKK-NH2),2 µg/mL,8 µg/mL,4 µg/mL,8 µg/mL,8 µg/mL,4 µg/mL,4 µg/mL,4 µg/mL,decreased dramatically compared with Ctriporin,9.8 ± 0.6%,2 µg/mL,2 µg/mL,2 µg/mL,8 µg/mL,8 µg/mL,4 µg/mL,16 µg/mL,8 µg/mL,4 µg/mL,8 µg/mL,MICs (S. capitis 3255): 2 µg/mL; MICs (S. epidermidis 6943): 4 µg/mL; MICs (S. epidermidis 9092): 4 µg/mL; MICs against the ESKAPE pathogens (range over the standard strains of Table 2) (standard ESKAPE strains): 2 to 8 µg/mL; MIC values against clinical isolates of CRE and MDR A. baumannii [2]: 2 µg/mL
CC[C@H](C)[C@H](NC(=O)[C@H](C)NC(=O)[C@H](CCCCN)NC(=O)[C@@H]1CCCN1C(=O)[C@@H](NC(=O)[C@H](CC(C)C)NC(=O)[C@H](CCCCN)NC(=O)[C@H](Cc1c[nH]c2ccccc12)NC(=O)[C@H](CC(C)C)NC(=O)[C@@H](N)Cc1ccccc1)[C@@H](C)CC)C(=O)N[C@@H](CCCCN)C(=O)N[C@@H](CCCCN)C(=O)N[C@H](C(=O)N[C@@H](CCCCN)C(=O)N[C@@H](CCCCN)C(=O)N[C@@H](CC(C)C)C(=O)N[C@H](C(=O)N[C@@H](CCCCN)C(=O)N[C@@H](CCCCN)C(N)=O)[C@@H](C)CC)C(C)C [CM6] (H-FLWKLIPKAIKKVKKLIKK-NH2),4 µg/mL,8 µg/mL,8 µg/mL,8 µg/mL,8 µg/mL,4 µg/mL,8 µg/mL,8 µg/mL,decreased dramatically compared with Ctriporin,8.1 ± 1.9%,2 µg/mL,2 µg/mL,2 µg/mL,8 µg/mL,8 µg/mL,4 µg/mL,16 µg/mL,8 µg/mL,8 µg/mL,8 µg/mL,MICs (S. capitis 3255): 2 µg/mL; MICs (S. epidermidis 6943): 4 µg/mL; MICs (S. epidermidis 9092): 4 µg/mL; MICs against the ESKAPE pathogens (range over the standard strains of Table 2) (standard ESKAPE strains): 4 to 8 µg/mL; MIC values against clinical isolates of CRE and MDR A. baumannii [2]: 2 µg/mL
